# From patent US11345666B2, “Phenyl and pyridinyl substituted imidazoles as modulators of RORγT” (Janssen Pharmaceutica NV, priority 2018, dated 2022)
# Read-outs that look alike come from different tables or passages of the source.
# How the values were obtained:
# [1] = target: human RORγt ligand binding domain (RORγt LBD) (Homo sapiens (Human), UniProt P51449); assay: RORγt ThermoFluor assay
# Summary of the method: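 Thermal shift of His-tagged human RORγt LBD (0.065 mg/mL) with 60 μM 1,8-ANS in 100 mM Hepes pH 7.0, 10 mM NaCl, 2.5 mM GSH, 0.002% Tween-20, heated at 1° C./min. Compounds in 1:2 series from a 10 mM DMSO stock; KD estimated from ΔTm using protein unfolding thermodynamics.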
# full-length human RORγt = full-length human RORγt (Homo sapiens (Human), UniProt P51449); assay: RORγt (full-length human) reporter assay, conditions A or B; format: cell-based; conditions: for inhibition at 0.22 µM: 0.22 μM compound concentration (******); for IC50: HEK293T cells, read-out: RORγt (FL) Reporter Assay A or B, IC50; for inhibition at 6 µM: read-out: RORγt (FL) Reporter Assay A or B, % inhibition @ 6 μM, 6 μM compound concentration; for inhibition at 2 µM: 2 μM compound concentration (**); for inhibition at 1 µM: 1 μM compound concentration (***)
# Summary of the method: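 HEK293T cells transiently co-transfected (PEI) with GAL4-DBD–RORγt, GAL4-firefly luciferase and CMV-Renilla reporters; condition A 35,000 cells/well, 170.5 ng DNA/well; condition B 8750 cells/well, 42.6 ng DNA/well.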
# [2] = read-out: RORγt (FL) Reporter Assay A or B, % inhibition
# Chain of full-length human RORγt (P51449 other isoform, or with tags, fused parts or gaps): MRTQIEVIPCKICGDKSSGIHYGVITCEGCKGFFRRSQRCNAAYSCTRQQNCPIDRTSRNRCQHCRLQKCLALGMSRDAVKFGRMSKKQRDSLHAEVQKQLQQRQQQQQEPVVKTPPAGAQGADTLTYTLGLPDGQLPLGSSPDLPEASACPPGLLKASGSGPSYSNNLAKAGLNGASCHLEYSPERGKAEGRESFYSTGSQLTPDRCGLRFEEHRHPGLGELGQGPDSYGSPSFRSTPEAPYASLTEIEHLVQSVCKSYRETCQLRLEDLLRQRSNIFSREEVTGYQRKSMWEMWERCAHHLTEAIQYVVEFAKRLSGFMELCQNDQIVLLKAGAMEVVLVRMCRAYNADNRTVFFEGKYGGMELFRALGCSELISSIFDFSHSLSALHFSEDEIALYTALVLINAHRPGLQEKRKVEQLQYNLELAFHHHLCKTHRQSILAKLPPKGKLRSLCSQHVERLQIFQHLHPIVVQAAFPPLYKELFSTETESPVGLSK
# Chain of human RORγt ligand binding domain (RORγt LBD) (P51449 other isoform, or with tags, fused parts or gaps): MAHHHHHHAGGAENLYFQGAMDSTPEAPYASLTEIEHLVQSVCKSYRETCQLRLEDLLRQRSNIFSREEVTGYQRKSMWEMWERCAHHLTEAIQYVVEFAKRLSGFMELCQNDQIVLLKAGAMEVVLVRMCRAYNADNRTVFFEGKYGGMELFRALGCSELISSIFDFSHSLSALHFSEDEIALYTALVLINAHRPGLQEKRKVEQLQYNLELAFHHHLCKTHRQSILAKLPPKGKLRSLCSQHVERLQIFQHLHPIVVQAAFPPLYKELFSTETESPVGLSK
Structure (SMILES),Kd [1],IC50 (full-length human RORγt),inhibition at 6 µM (full-length human RORγt),further results
"CCc1nc(C(=O)NC[C@H]2CC[C@H](S(C)(=O)=O)CC2)c(C)n1-c1ccc(CC(C)(C)C(F)(F)F)c(OC)c1 [Example 44, 2-Ethyl-1-(3-methoxy-4-(3,3,3-trifluoro-2,2-dimethylpropyl)phenyl)-5-methyl-N-(((1r,4r)-4-(methylsulfonyl)cyclohexyl)methyl)-1H-imidazole-4-carboxamide]",4.1 nM,31 nM,–,inhibition at 0.22 µM (full-length human RORγt; [2]): 75%
"COc1cc(N[C@H](C)C(F)(F)F)ccc1-n1c(CC(C)C)nc(C(=O)NC[C@H]2CC[C@H](S(C)(=O)=O)CC2)c1Cl [Example 9, 5-Chloro-2-isobutyl-1-(2-methoxy-4-(((R)-1,1,1-trifluoropropan-2-yl)amino)phenyl)-N-(((1r,4R)-4-(methylsulfonyl)cyclohexyl)methyl)-1H-imidazole-4-carboxamide]",2.6 nM,35 nM,101%,–
"CCc1nc(C(=O)NC[C@]2(O)CC[C@@H](S(C)(=O)=O)CC2)c(Cl)n1-c1ccc(CC(C)(C)C(F)(F)F)cc1F [Example 102, 5-Chloro-2-ethyl-1-(2-fluoro-4-(3,3,3-trifluoro-2,2-dimethylpropyl)phenyl)-N-(((1s,4s)-1-hydroxy-4-(methylsulfonyl)cyclohexyl)methyl)-1H-imidazole-4-carboxamide]",8 nM,36 nM,–,"inhibition at 0.67 µM (full-length human RORγt; 0.67 μM compound concentration (****), read-out: RORγt (FL) Reporter Assay A or B, % inhibition): 74%"
"Cc1nc(C(=O)NC[C@@H]2CC[C@@H](S(C)(=O)=O)C[C@H]2O)c(C#N)n1-c1ccc(CC(C)(C)C(F)(F)F)cc1OC(F)F (single isomer, unassigned) [Example 57, 5-Cyano-1-(2-(difluoromethoxy)-4-(3,3,3-trifluoro-2,2-dimethylpropyl)phenyl)-N-(((1S*,2R*,4R*)-2-hydroxy-4-(methylsulfonyl)cyclohexyl)methyl)-2-methyl-1H-imidazole-4-carboxamide]",22 nM,40 nM,–,"inhibition at 3 µM (full-length human RORγt; read-out: RORγt (FL) Reporter Assay A or B, % inhibition, 3 μM compound concentration (*)): 98%"
"CCc1nc(C(=O)NC[C@]2(O)CC[C@@H](S(C)(=O)=O)CC2)c(C#N)n1-c1ccc(CCC(F)(F)F)cc1OC(F)(F)F [Example 114, 5-Cyano-2-ethyl-N-(((1s,4s)-1-hydroxy-4-(methylsulfonyl)cyclohexyl)methyl)-1-(2-(trifluoromethoxy)-4-(3,3,3-trifluoropropyl)phenyl)-1H-imidazole-4-carboxamide]",110 nM,660 nM,66%,–
"Cc1nc(C(=O)NC[C@]2(O)CC[C@@H](S(C)(=O)=O)CC2)c(C#N)n1-c1ccc(CC(C)(C)C(F)(F)F)cc1OC(F)F [Example 54, 5-Cyano-1-(2-(difluoromethoxy)-4-(3,3,3-trifluoro-2,2-dimethylpropyl)phenyl)-N-(((1s,4s)-1-hydroxy-4-(methylsulfonyl)cyclohexyl)methyl)-2-methyl-1H-imidazole-4-carboxamide]",11 nM,35 nM,–,inhibition at 1 µM (full-length human RORγt; [2]): 83%
"CCc1nc(C(=O)NC[C@H]2CC[C@H](S(C)(=O)=O)CC2)c(C)n1-c1ncc(C[C@H](C)C(F)(F)F)cc1OC(F)F (single isomer, unassigned) [Example 73, 1-(3-(Difluoromethoxy)-5-((S*)-3,3,3-trifluoro-2-methylpropyl)pyridin-2-yl)-2-ethyl-5-methyl-N-(((1r,4S)-4-(methylsulfonyl)cyclohexyl)methyl)-1H-imidazole-4-carboxamide]",38 nM,110 nM,–,inhibition at 1 µM (full-length human RORγt; [2]): 80%
"CCc1nc(C(=O)NC[C@H]2CC[C@H](S(C)(=O)=O)CC2)c(Cl)n1-c1ccc(CC(C)(C)C(F)(F)F)c(OC)c1 [Example 42, 5-Chloro-2-ethyl-1-(3-methoxy-4-(3,3,3-trifluoro-2,2-dimethylpropyl)phenyl)-N-(((1r,4r)-4-(methylsulfonyl)cyclohexyl)methyl)-1H-imidazole-4-carboxamide]",1.1 nM,6.2 nM,–,inhibition at 0.22 µM (full-length human RORγt; [2]): 66%
"CCc1nc(C(=O)NC[C@]2(O)CC[C@@H](S(C)(=O)=O)CC2)cn1-c1c(F)cc(CC(C)C)cc1F [Example 81, 1-(2,6-Difluoro-4-isobutylphenyl)-2-ethyl-N-(((1s,4s)-1-hydroxy-4-(methylsulfonyl)cyclohexyl)methyl)-1H-imidazole-4-carboxamide]",260 nM,1200 nM,27%,–
"Cc1nc(C(=O)NC[C@]2(O)CC[C@@H](S(C)(=O)=O)CC2)cn1-c1ccc(CC(C)(C)C(F)(F)F)cc1OC(F)F [Example 132, 1-(2-(Difluoromethoxy)-4-(3,3,3-trifluoro-2,2-dimethylpropyl)phenyl)-N-(((1s,4s)-1-hydroxy-4-(methylsulfonyl)cyclohexyl)methyl)-2-methyl-1H-imidazole-4-carboxamide]",340 nM,800 nM,–,"inhibition at 3 µM (full-length human RORγt; 3 μM compound concentration (*), read-out: RORγt (FL) Reporter Assay A or B, % inhibition): 87%"
"CCc1nc(C(=O)NC[C@]2(O)CC[C@@H](S(C)(=O)=O)CC2)cn1-c1ccc(C[C@@H](C)C(F)(F)F)cc1OC (single isomer, unassigned) [Example 17, 2-Ethyl-N-(((1s,4S)-1-hydroxy-4-(methylsulfonyl)cyclohexyl)methyl)-1-(2-methoxy-4-((R*)-3,3,3-trifluoro-2-methylpropyl)phenyl)-1H-imidazole-4-carboxamide]",75 nM,400 nM,–,inhibition at 2 µM (full-length human RORγt; [2]): 74%
"CCc1nc(C(=O)NC[C@]2(O)CC[C@@H](S(C)(=O)=O)CC2)c(Cl)n1-c1ccc(CCC(F)(F)F)cc1F [Example 23, 5-Chloro-2-ethyl-1-(2-fluoro-4-(3,3,3-trifluoropropyl)phenyl)-N-(((1s,4s)-1-hydroxy-4-(methylsulfonyl)cyclohexyl)methyl)-1H-imidazole-4-carboxamide]",49 nM,37 nM,41%,–
"COc1cc(CC(C)(C)C(F)(F)F)ccc1-n1cc(C(=O)NC[C@H]2CC[C@H](S(C)(=O)=O)CC2)nc1C [Example 129, 1-(2-Methoxy-4-(3,3,3-trifluoro-2,2-dimethylpropyl)phenyl)-2-methyl-N-(((1r,4r)-4-(methylsulfonyl)cyclohexyl)methyl)-1H-imidazole-4-carboxamide]",45 nM,130 nM,–,inhibition at 0.22 µM (full-length human RORγt; [2]): 47%

# Continued by falling Kd [1], values first:
Kd [1],IC50 (full-length human RORγt),inhibition at 6 µM (full-length human RORγt),Structure (SMILES),further results
120 nM,140 nM,84%,"CCc1nc(C(=O)NC[C@H]2CC[C@H](S(C)(=O)=O)CC2)c(C)n1-c1ncc(CCCC(F)(F)F)cc1OC(F)F [Example 51, 1-(3-(Difluoromethoxy)-5-(4,4,4-trifluorobutyl)pyridin-2-yl)-2-ethyl-5-methyl-N-(((1r,4r)-4-(methylsulfonyl)cyclohexyl)methyl)-1H-imidazole-4-carboxamide]",–
100 nM,190 nM,74%,"CCc1nc(C(=O)NC[C@H]2CC[C@H](S(C)(=O)=O)CC2)c(C#N)n1-c1ccc(CCC(F)(F)F)cc1OC(F)(F)F [Example 115, 5-Cyano-2-ethyl-N-(((1r,4r)-4-(methylsulfonyl)cyclohexyl)methyl)-1-(2-(trifluoromethoxy)-4-(3,3,3-trifluoropropyl)phenyl)-1H-imidazole-4-carboxamide]",–
24 nM,54 nM,96%,"CCc1nc(C(=O)NC[C@H]2CC[C@H](S(C)(=O)=O)CC2)c(C#N)n1-c1ccc(CCC(F)(F)F)cc1OC(F)F [Example 26, 5-Cyano-1-(2-(difluoromethoxy)-4-(3,3,3-trifluoropropyl)phenyl)-2-ethyl-N-(((1r,4r)-4-(methylsulfonyl)cyclohexyl)methyl)-1H-imidazole-4-carboxamide]",–
21 nM,140 nM,98%,"CCc1nc(C(=O)NC[C@]2(O)CC[C@@H](S(C)(=O)=O)CC2)c(C)n1-c1ncc(CC(C)(C)C(F)(F)F)cc1OC [Example 127, 2-Ethyl-N-(((1s,4s)-1-hydroxy-4-(methylsulfonyl)cyclohexyl)methyl)-1-(3-methoxy-5-(3,3,3-trifluoro-2,2-dimethylpropyl)pyridin-2-yl)-5-methyl-1H-imidazole-4-carboxamide]",–
12 nM,48 nM,–,"CCc1nc(C(=O)NC[C@H]2CC[C@H](S(C)(=O)=O)CC2)c(C#N)n1-c1ncc(CC(C)(C)C(F)(F)F)cc1OC [Example 122, 5-Cyano-2-ethyl-1-(3-methoxy-5-(3,3,3-trifluoro-2,2-dimethylpropyl)pyridin-2-yl)-N-(((1r,4r)-4-(methylsulfonyl)cyclohexyl)methyl)-1H-imidazole-4-carboxamide]",inhibition at 2 µM (full-length human RORγt; [2]): 101%
2.5 nM,33 nM,–,"[2H]C([2H])([2H])Oc1cc(CC(C)(C)C(F)(F)F)ccc1-n1c(CC)nc(C(=O)NC[C@]2(O)CC[C@@H](S(C)(=O)=O)CC2)c1C#N [Example 28, 5-Cyano-2-ethyl-N-(((1s,4s)-1-hydroxy-4-(methylsulfonyl)cyclohexyl)methyl)-1-(2-(methoxy-d3)-4-(3,3,3-trifluoro-2,2-dimethylpropyl)phenyl)-1H-imidazole-4-carboxamide]",inhibition at 2 µM (full-length human RORγt; [2]): 102%
